# Test results from patent publication US10966940B2, “Methods for the treatment of tinnitus induced by cochlear excitotoxicity” (INSTITUT NATIONAL DE LA SANTE ET DE LA RECHERCHE MEDICALE …, priority 2004, dated 2021).
# Columns and labels:
# tinnitus = conditions: systemic administration; cited from earlier work
# [1] = in vivo; cited from earlier work
# NMDA receptors = conditions: local administration; cited from earlier work
# [2] = system: salicylate-induced tinnitus; conditions: cited from earlier work; for false positive responses (jumps in absence of sound) induced by the substance: tinnitus induction; for number of false positives after delivery to the cochleas via the round window membrane: salicylate-treated animals
# [3] = system: sensory outer hair cells (OHC) and inner hair cell (IHC) synaptic complex; conditions: 350 mg/kg i.p. twice a day for 2 days
# Description: After decapitation of the rats under deep anaesthesia (pentobarbital 50 mg/kg), the cochleas were removed from the temporal bone and perfused with a fixative solution of 2.5% glutaraldehyde in 0.1 M phosphate-buffered saline (PBS), pH 7.3. They were then processed either for scanning (SEM) or transmission electron (TEM) microscopy. For SEM, the otic capsule was dissected out and the stria vascularis, tectorial, and Reissner's membranes were removed. After rinsing in PBS (pH 7.3) the samples were dehydrated in a graded series of ethanol (30-100%), critical point-dried in CO2, coated with gold palladium, and examined using a Hitachi S4000 microscope. For TEM, the cochleas were postfixed in a 1% aqueous solution of osmium tetroxide for 2 hours, rinsed in phosphate buffer, dehydrated in a graded series of ethanol (30-100%), and embedded in Epon resin. Transverse ultrathin sections of the organ of Corti were taken from the apical half of the cochlea. The sections, mounted on formvar-coated or mesh grids, were stained with uranyl acetate, and lead citrate and examined using a Hitachi 7100 microscope.
# [4] = system: NR1 subunit of the cochlear NMDA receptor; conditions: 350 mg/kg i.p. twice over 24 hours; sample after 24 hours
# Description: The salicylate dose used is known to induce tinnitus (Guitton et al., J. of Neuroscience 23 (9): 3944-3952 (2003)). Another group of 3 animals served as control and was injected i.p. with a NaCl 0.9% solution of the same volume as salicylate treated animals. Samples were obtained after 24 hours in the salicylate and control groups and 24 hours respectively 5 days post incident for the acoustic trauma group.
# Tissues were harvested in cold PBS and homogenized in sample buffer, and the lysates were centrifuged to remove detergent-insoluble material and separated on a 10% SDS-PAGE in Tris/Tricine. After gel electrophoresis, proteins were transferred electrophoretically to nitrocellulose membranes (PVDF transfer membrane Hybond-P, Amersham Pharmacia Biotech, USA). Blots were first incubated with a primary anti-antibody against the NMDA NR1 receptor subunit (1/1000 dilution; rabbit polyclonal antibody, Chemicon international, USA), and with a primary antibody anti-actin (1/50000 dilution, mouse monoclonal anti-β-actin, Sigma, USA) overnight at 4° C. To verify that the molecular weight of the NR1 subunit is identical in both brain and cochlea, immunoblots from the brain of control animals were performed. […] Image scanning of Western blots was then performed for semi-quantification of expression levels of NR1 and actin proteins using Biorad Fluor-S software (Quantity one).
# guinea pigs [5] = experiment: ESA noise trauma model: ensemble spontaneous activity of the cochlear nerve; format: in vivo, guinea pig; conditions: for regular ESA peak centered at 900 Hz to 1 kHz: treated ear; for ESA spectral peak centered at 200 to 250 Hz (tinnitus): 50 microM in 0.7% hyaluronic acid gel, round window
# Description: We developed therefore an animal model with guinea pigs that were exposed to intensive noise, producing acute acoustic trauma, and whose ESA was recorded to control for the absence or presence of tinnitus (“ESA noise trauma model”). The possibility to record tinnitus by electrophysiological tests provides an excellent tool for evaluating the therapeutic benefits of pharmaceutical compounds in suppressing tinnitus. The development of the ESA noise trauma model required extensive experimentation with different noise trauma protocols as well as the development and testing of specific measurement tools for extended observation periods in vivo.
# The experiment was performed in two stages. First, guinea pigs were exposed to intense noise stimulation in order to provoke acute acoustic trauma (day 0). Auditory thresholds and ESA were determined and then followed further by repeated electrophysiological measurements. If persisting tinnitus could still be detected after at least 5 days, an NMDA receptor antagonists (ketamine or 7-CK) was applied in a hyaluronic acid formulation onto the round window membrane of the cochlea. […] After treatment with the NMDA receptor antagonists, electrophysiological measurements of hearing thresholds and ESA continued for at least 10 days. The primary endpoints of the study were to test whether the pharmacological treatment could suppress tinnitus even after its onset, and whether such treatment effect was persisting or not. As a control, contralateral ears were exposed to the same noise exposure and followed by electrophysiology.
# Experiments were performed on adult pigmented guinea pigs (250 to 300 grams at study begin). During experiments, animals were caged individually. Outside the experiments, the animals received water and nutrition ad libidum. […] In two contralateral left ears, tinnitus was observed, so that they could be used as a control group.
# Acoustic trauma was induced by a continuous pure tone of 6 kHz generated by a waveform synthesizer (Hewlett-Packard 8904A). […] Sound level was measured using a calibrated Bruel and Kjaer microphone (4314) and a Bruel and Kjaer calibrating amplifier (2606).
# A teflon-coated platinum electrode implanted onto the round window membranes of both cochleas (with reference electrodes placed in a neck muscle) measured the ESA and the compound action potential of the auditory nerve (CAP). […]
# The ESA was recorded from the platinum wire placed in the round window niche. […]
# The ESA was measured just before acute acoustic trauma and 20 minutes following noise exposure on day 0, and then repeatedly for at least 10 days as described above. […] Subsequently, ESA was measured again on the first day after treatment (T+1) as well as 10 days after treatment (T+10). […]
# guinea pigs [6] = experiment: CAP audiogram (hearing threshold) in ESA noise trauma model; format: in vivo, guinea pig; conditions: local administration onto round window membrane
# Description: A teflon-coated platinum electrode implanted onto the round window membranes of both cochleas (with reference electrodes placed in a neck muscle) measured the ESA and the compound action potential of the auditory nerve (CAP). The surgery was performed using a posterior auricular surgical procedure (dorsal approach) prior to noise exposure. The reference electrode and the round window electrode were soldered to a plug fixed on the skull using dental cement (Unifast Trad, GC Corporation).
# The CAP was measured concomitantly with ESA measurements using the same electrode. Tone bursts (with a duration of 9 ms and a rise/fall cycle of 1 ms, 10 per second) generated by an arbitrary function generator (LeCroy Corp., model 9100R) were applied to the animal's ear in free filed via a JBL 075 earphone. CAP audiograms were obtained by varying burst levels from 0 to 100 dB SPL in steps of 5 dB at the frequencies 2, 4, 6, 8, 10, 12, 16, 20, and 26 kHz. Auditory nerve responses were amplified (Tektronic TM 503; gain 2000), filtered (3.5 kHz low pass) and averaged on a PC (Dimension Pentium, Dell). CAP amplitudes were measured peak-to-peak between the first negative depression N1 and the subsequent positive wave P1. The CAP threshold was defined as the sound intensity (in dB SPL) needed to elicit a measurable response (greater than 5 μV). […]
# Long-Evans rats = experiment: Behavioral (active avoidance) model of tinnitus induced by cochlear excitotoxicity provoked by acute acoustic trauma; format: in vivo, rat
# Description: We developed and tested an animal model of tinnitus induced by cochlear excitotoxicity, which was provoked by acoustic trauma. […] These considerations mean for example that more animals are required to obtain a sufficient number of tinnitus cases for study and to permit observation of tinnitus over time. As it is unclear whether a case of tinnitus induced by cochlear excitotoxicity is to last or not, it is advisable to conduct studies in its early stages.
# The experiments were performed in two stages. First, the hearing loss following acute acoustic trauma as well as the incidence of tinnitus were evaluated with no therapeutic compound administered.
# During experiments, animals were caged individually at a constant temperature with a day/night cycle of 12/12 hours. All behavioral tests were performed in the dark phase, the usual period of animal activity, for every animal individually at about the same time each day. Outside the experiments, the animals received water and nutrition ad libidum. A total of 60 animals were used: 30 for the first stage (of which 25 were tested by behavioral techniques and 5 by electrophysiology), and 30 for the second stage with 10 for each pharmaceutical compound tested.
# Acoustic trauma was induced by a continuous pure tone of 6 kHz generated by a waveform synthesizer (Hewlett-Packard 8904A). The animals were anesthetized and exposed to 130 dB sound pressure level (SPL) for 20 minutes, which was routed through a programmable attenuator and presented to the ears in free field via a JBL 075 earphone positioned 10 cm in front of the animal's head. Sound level was measured using a calibrated Bruel and Kjaer microphone (4314) and a Bruel and Kjaer calibrating amplifier (2606).
# Behavioral conditioning and testing Animals were conditioned to achieve active avoidance (Guitton et al., J. of Neuroscience 23 (9): 3944-3952 (2003)). Behavioral testing consisted of the performance of a task whenever a sound was produced in a conditioning box with an electrical floor and a climbing pole. […] The unconditional stimulus consisted of an electric shock to the feet of the animals (3.7 mA) during maximally 30 seconds. Interstimulus intervals were 1 second. The electric shocks were stopped by the investigator once the animal correctly climbed onto the pole. Intervals between trials were at least one minute long.
# The score was defined as the animal's performance, measured by the number of cases when it climbed correctly onto the pole in response to the sound. As soon as an animal had reached a score of at least 80% in three consecutive sessions, it was considered successfully conditioned and employed in the experiments.
# Experiments were conducted daily with measurements of both score and false positive responses during one session of 10 minutes with 10 trials in total. False positive responses were climbings onto the pole between trials without any acoustic stimulation, i.e. during periods of silence. They can be interpreted as the perception of tinnitus, as the animals are performing the task of climbing onto the pole as if they were hearing the stimulus (Guitton et al., J. of Neuroscience 23 (9): 3944-3952 (2003)). Sound stimuli were randomized, and electrical footshocks were only delivered if the animals didn't climb onto the pole in response to sound.
# Animals were anaesthetized with a single-dose i.p. injection of 0.3 ml/kg of pentobarbital at 6% (Sanofi) and operated under aseptic conditions right after the first behavioral testing (day 0). The two bullae were opened through a posterior auricular surgical procedure (dorsal approach). After exposure of the two cochleas, gelfoam (Gelita tampon, B. Braun Medical AG) impregnated with 2.5 μl artificial perilymph containing the pharmaceutical compounds was placed on the each of the round windows of the two cochleas. The concentration of all three pharmaceutical compounds used was 50 μM.
# [7] = system: PCP binding site of the NMDA receptor; conditions: higher affinity than (R)-ketamine; cited from earlier work
smiles,measurement,setting,value
C1C2CC3CC1CC(C2)C3 [adamantane],tinnitus during treatment,tinnitus,reduction in tinnitus during treatment
CCN(CC)CCn1c(=O)c(Cc2ccc(OC)cc2)nc2ccccc21 [caroverine],"intracochlear concentration, local versus systemic administration",[1],higher intracochlear concentrations
"N[C@H](CCCP(=O)(O)O)C(=O)O [D-AP5, D-2-amino-5-phosphonopentanoic acid]",functional recovery and regrowth of auditory dendrites,NMDA receptors,delayed the functional recovery and the regrowth of auditory dendrites
"O=C([O-])c1ccccc1O.[Na+] [salicylate, sodium salicylate]",false positive responses (jumps in absence of sound) induced by the substance,[2],significant increase
same,stereocilia of OHC and IHC,[3]; SEM,intact
same,ultrastructure of the IHC synaptic complex,[3]; TEM,No ultrastructural abnormalities
same,"NR1 NMDA receptor subunit expression, higher than control animals",[4],4%
Cc1cccc(Nc2ccccc2C(=O)O)c1C [mefenamate],false positive responses (jumps in absence of sound) induced by the substance,[2],increased the number of false positive responses
"C[C@]12N[C@H](Cc3ccccc31)c1ccccc12 [MK-801, dizocilpine]",number of false positives after delivery to the cochleas via the round window membrane,[2],decreased significantly
"CN[C@@]1(c2ccccc2Cl)CCCCC1=O (stereo in doubt) [S-(+)-Ketamine, 2-(2-chlorophenyl)-2-(methylamino)-cyclohexanone]",regular ESA peak centered at 900 Hz to 1 kHz,guinea pigs [5]; 10 days after treatment (T+10),fully recovered
same,regular ESA peak centered at 900 Hz to 1 kHz,guinea pigs [5]; day T1 after treatment,"still appeared, yet diminished"
same,ESA spectral peak centered at 200 to 250 Hz (tinnitus),"guinea pigs [5]; day T1 after treatment, given after onset of persisting tinnitus",completely disappeared
same,ESA spectral peak centered at 200 to 250 Hz (tinnitus),guinea pigs [5]; day T10 after treatment,remained absent
same,"permanent threshold shift (PTS, hearing loss) after treatment",guinea pigs [6],not changed
same,number of false positives,"Long-Evans rats; group 1 (no increase), days 0 and 1",0.22±0.22 false positives
same,number of false positives,"Long-Evans rats; group 2 (reversible increase), day 0",0.2±0.2 false positives
same,number of false positives,"Long-Evans rats; group 2 (reversible increase), day 1",5±0.48 false positives
same,"recovery of behavioral score after trauma, in words","Long-Evans rats; local administration to round window membrane, 50 μM",improvement was slower than in untreated animals
same,"effect on tinnitus (false positives), in words","Long-Evans rats; local administration to round window membrane, 50 μM, before acoustic trauma",only cases of transient tinnitus could be observed
same,number of animals with no increase in false positives (group 1),Long-Evans rats; of 10 animals per compound,5
same,"number of animals with only reversible increase in false positives (group 2, transient tinnitus)",Long-Evans rats; of 10 animals per compound,5
same,average score at stabilization,"Long-Evans rats; rat, in vivo",89%±2.3
same,affinity relative to (R)-ketamine,[7],3-4 fold
CC1CCCCC1(c1cccs1)N1CCCCC1 (stereo not drawn) [gacyclidine],number of false positives after delivery to the cochleas via the round window membrane,[2],decreased significantly
